Values joined by “and” are separate entries in the source; they are usually repeats but may differ in a detail not shown here. Equal values may be shown once.
Columns and labels:
Genome polyprotein [1] = target: T1, Genome polyprotein (dengue virus type 2, UniProt P29990); type: functional, Thailand/16681/1984
Genome polyprotein [2] = target: T1, Genome polyprotein; type: functional, Thailand/16681/1984; remark: listed apart in the source

T1 sequence (P29990 1346-1475 limits assumed): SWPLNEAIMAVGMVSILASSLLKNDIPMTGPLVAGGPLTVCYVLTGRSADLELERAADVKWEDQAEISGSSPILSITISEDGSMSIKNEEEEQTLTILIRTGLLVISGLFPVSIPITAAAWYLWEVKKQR
T1 sequence (P29990 1476-2093 limits assumed): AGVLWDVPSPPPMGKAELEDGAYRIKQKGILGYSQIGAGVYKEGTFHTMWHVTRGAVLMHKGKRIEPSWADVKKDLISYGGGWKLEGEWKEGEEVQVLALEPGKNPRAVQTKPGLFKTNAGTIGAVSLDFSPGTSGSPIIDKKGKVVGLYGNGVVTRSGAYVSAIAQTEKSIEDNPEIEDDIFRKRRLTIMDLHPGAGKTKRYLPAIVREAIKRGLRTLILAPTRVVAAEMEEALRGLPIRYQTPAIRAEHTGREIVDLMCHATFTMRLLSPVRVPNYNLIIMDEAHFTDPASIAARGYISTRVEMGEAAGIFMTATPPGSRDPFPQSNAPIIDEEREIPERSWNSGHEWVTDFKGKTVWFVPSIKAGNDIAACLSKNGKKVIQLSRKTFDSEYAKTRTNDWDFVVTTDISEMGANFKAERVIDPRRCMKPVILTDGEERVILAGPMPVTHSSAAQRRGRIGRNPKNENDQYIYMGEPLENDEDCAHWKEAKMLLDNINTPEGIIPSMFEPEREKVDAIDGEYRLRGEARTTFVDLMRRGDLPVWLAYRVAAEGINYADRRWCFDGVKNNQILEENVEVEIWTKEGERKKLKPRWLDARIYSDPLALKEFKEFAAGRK

SMILES	IC50 (Genome polyprotein [1])	IC50 (Genome polyprotein [2])
NCc1cccc(NC(=O)c2cc(C3CC3)nc3ccc(Cl)cc23)c1	> 99.5 µM	> 100 µM
O=C(Nc1cc(Cl)cc(C(=O)Nc2ccnc([C@H]3CCCN3)n2)c1)OCc1ccccc1	> 99.5 µM	> 100 µM
C[C@H]1CCC[C@H](C(=O)Nc2cccc(CN)c2)O1	> 99.5 µM	> 100 µM
NCc1cccc([C@H]2C[C@@H]2c2cc(Cl)cc(NC(=O)OCc3ccccc3)c2)c1	41 µM and 25.9 µM and 30 µM	> 100 µM
Cn1cncc1COc1cccc([C@H](NC(=O)OCc2ccccc2)C(=O)Nc2cccc(CN)c2)c1	66 µM	> 100 µM
CS(=O)(=O)N(c1cc(Cl)cc(C(=O)Nc2cccc(CN)c2)c1)S(C)(=O)=O	> 99.5 µM	> 100 µM
Cc1cc(CN)cc(C)c1NS(=O)(=O)c1ccc(Oc2ccccc2Cl)cc1	> 99.5 µM	> 100 µM
NC1(c2cccc(NS(=O)(=O)c3ccc(Oc4ccccc4Cl)cc3)c2)CCOCC1	> 99.5 µM	> 100 µM
CCc1c(C(=O)Nc2cccc(CN)c2)c2cc(Cl)ccc2n1C	> 99.5 µM	> 100 µM
O=C(N[C@H]1[C@H]2CCCCC[C@H]2[C@H]1C(=O)Nc1cccc(C2CCNCC2)c1)OCc1ccccc1	17.9 µM and 53 µM	32.7 µM
NCCc1ccc(NC(=O)c2cc(Cl)cc(CN)c2)cc1	> 99.5 µM	> 100 µM
COCC=Cc1cccc([C@@H](NC(=O)OCc2ccccc2)C(=O)Nc2cccc(CN)c2)c1	56.9 µM	> 100 µM
O=c1ccc(N2CCN(Cc3c[nH]c4ccccc34)CC2)c[nH]1	> 99.5 µM	> 100 µM
COc1cn(-c2cccc(C(F)(F)F)c2)nc1C(=O)Nc1cccc(CN)c1	> 99.5 µM	> 100 µM
NCc1cccc(NC(=O)c2cc(N)cc(Cl)c2)c1	> 99.5 µM	> 100 µM
c1cncc(CN2CC[C@H](NCc3c[nH]c4ccccc34)C2)c1	> 99.5 µM	> 100 µM
CCOc1cccc(-c2ccc(S(=O)(=O)Nc3ccc(Cl)cc3C(=O)O)cc2C)c1	7.15 µM	7.34 µM
NC1CN(c2ccc(NS(=O)(=O)c3ccc(Oc4ccccc4Cl)cc3)cn2)C1	> 99.5 µM	> 100 µM
NCc1cccc(NC(=O)[C@H](NC(=O)OCc2ccccc2)c2cccc(-c3ccnc(N)c3)c2)c1	> 99.5 µM	> 100 µM
Cc1cc(C(=O)Nc2cccc(CN)c2)n2nc(C(F)(F)F)cc2n1	86.7 µM	> 100 µM
CC(C)(C)OC(=O)NCc1cccc(NC(=O)C[C@H](N)c2ccc(OCc3ccccc3)c(Br)c2)c1	> 99.5 µM	> 100 µM

SMILES	IC50 (Genome polyprotein [1])	IC50 (Genome polyprotein [2])
N[C@H]1CCCc2ccc(NC(=O)c3cc(Cl)cc(NC(=O)OCc4ccccc4)c3)cc21	> 99.5 µM	> 100 µM
NCCc1cc(Cl)cc(C(=O)Nc2cccc(CN)c2)c1	> 99.5 µM	> 100 µM
NCc1cccc(NC(=O)[C@@H](NC(=O)OCc2ccccc2)c2cccc(-c3ccc(CN)cc3F)c2)c1	> 99.5 µM	> 100 µM
NC1(c2cccc(NC(=O)c3cc(Cl)cc(NC(=O)OCc4ccccc4)c3)c2)CCOCC1	> 99.5 µM	> 100 µM
Cc1ccc(OCc2ccccc2Cl)c(C(=O)Nc2cccc(CN)c2)c1	99.5 µM	> 100 µM
CS(=O)(=O)Nc1cc(Cl)cc(C(=O)Nc2cccc(CN)c2)c1	> 99.5 µM	> 100 µM
CCc1cc(NC(=O)OCc2ccccc2)cc(C(=O)Nc2cccc(CN)c2)c1	> 99.5 µM	> 100 µM
NCc1cc(Cl)cc(C(=O)Nc2cccc(C3CCNCC3)c2)c1	> 99.5 µM	> 100 µM
COc1ccc(-c2cccc([C@H](NC(=O)OCc3ccccc3)C(=O)Nc3cccc(CN)c3)c2)c(C#N)c1	56.5 µM	> 100 µM
NCc1cccc(NC(=O)[C@H](NC(=O)OCc2ccccc2)c2cccc(-c3ccccn3)c2)c1	> 99.5 µM	> 100 µM
NCc1cccc(NC(=O)[C@H]2CCc3nnc(-c4ccc(F)cc4)n3C2)c1	> 99.5 µM	> 100 µM
CC(C)(CNCc1c[nH]c2ccccc12)c1cccnc1	> 99.5 µM	> 100 µM
Cn1cc(NC(=O)c2cc(Cl)cc(NC(=O)OCc3ccccc3)c2)cn1	> 99.5 µM	> 100 µM
NCc1cccc(NC(=O)c2cc(Cl)cc(NC(=O)NCc3ccccc3)c2)c1	> 99.5 µM	> 100 µM
NCc1cccc(CNC(=O)[C@H]2[C@H]3CCCCC[C@H]3[C@H]2NC(=O)OCc2ccccc2)c1	14.4 µM and 63.2 µM and 44.4 µM	80.3 µM
COC(=O)c1cc(NC(=O)OCc2ccccc2)cc(C(=O)Nc2cccc(CN)c2)c1	> 99.5 µM	> 100 µM
O=C(Nc1cc(Cl)cc(C(=O)Nc2nccc([C@H]3CCCCN3)n2)c1)OCc1ccccc1	> 99.5 µM	> 100 µM
CCCN(C)C(=O)Cn1ccnc(N2CC[C@H](CO)C2)c1=O	> 99.5 µM	> 100 µM
NCc1ccc(NC(=O)[C@H]2[C@H]3CCCCC[C@H]3[C@H]2NC(=O)OCc2ccccc2)cc1	57.4 µM	> 100 µM
O=C(Nc1cc(Cl)cc(C(=O)Nc2nc([C@H]3CCCN3)cc(=O)[nH]2)c1)OCc1ccccc1	86.9 µM	> 100 µM
NCc1cccc(NC(=O)[C@@H]2C[C@@H](O)CN2C(=O)C23CC4CC(CC(C4)C2)C3)c1	> 99.5 µM	> 100 µM

SMILES	IC50 (Genome polyprotein [1])	IC50 (Genome polyprotein [2])
NCc1cccc(NC(=O)c2cc3c(F)cc(F)c(F)c3[nH]2)c1	> 99.5 µM	> 100 µM
NCc1cccc(NC(=O)[C@H](NC(=O)OCc2ccccc2)c2cccc(-c3ccc4c(c3)CC(=O)N4)c2)c1	16.2 µM and 7.19 µM	> 100 µM
NCc1ccc(NS(=O)(=O)c2ccc(Oc3ccccc3Cl)cc2)cc1Cl	> 99.5 µM	> 100 µM
Cn1cc(-c2cccc([C@@H](NC(=O)OCc3ccccc3)C(=O)Nc3cccc(CN)c3)c2)ccc1=O	> 99.5 µM	> 100 µM
CN(C)[C@@H]1CCC[C@H](C(=O)Nc2cccc(CN)c2)C1	> 99.5 µM	> 100 µM
N[C@H](CO)c1cccc(NC(=O)c2cc(Cl)cc(NC(=O)OCc3ccccc3)c2)c1	> 99.5 µM	> 100 µM
NC1CN(c2ncccc2NS(=O)(=O)c2ccc(Oc3ccccc3Cl)cc2)C1	> 99.5 µM	> 100 µM
NC1(c2cccc(NC(=O)c3cc(Cl)cc(NC(=O)OCc4ccccc4)c3)c2)CC1	> 99.5 µM	> 100 µM
NCc1cccc(Oc2ccc(S(=O)(=O)Nc3ccc(Cl)cc3C(=O)NCC(F)(F)F)cc2)c1	> 99.5 µM	> 100 µM
NC(=O)c1cccc(NC(=O)c2cc(Cl)cc(NC(=O)OCc3ccccc3)c2)c1	> 99.5 µM	> 100 µM
NCc1cccc(NC(=O)c2cc(Cl)cc3[nH]ncc23)c1	> 99.5 µM	> 100 µM
C=C(C)c1cc(NC(=O)OCc2ccccc2)cc(C(=O)Nc2cccc(CN)c2)c1	50.4 µM	> 100 µM
O=C(Cn1ccnc(N2CC[C@H](CO)C2)c1=O)N1CCOCC1	> 99.5 µM	> 100 µM
C=C(C)c1cccc([C@@H](NC(=O)OCc2ccccc2)C(=O)Nc2cccc(CN)c2)c1	30.1 µM	> 100 µM
CNCc1cc(Cl)cc(C(=O)Nc2cccc(CN)c2)c1	> 99.5 µM	> 100 µM
NCc1cccc(NC(=O)[C@@H](NC(=O)OCc2ccccc2)c2cccc(-c3ccc(N)nc3)c2)c1	> 99.5 µM	> 100 µM
NC1(c2cc(C(F)(F)F)ccc2NS(=O)(=O)c2ccc(Oc3ccccc3Cl)cc2)CC1	> 99.5 µM	> 100 µM
NCc1cccc(NC(=O)[C@H](NC(=O)OCc2ccccc2)c2ccc(OCc3ccccc3)c(Br)c2)c1	30.4 µM	> 100 µM
NCCc1cccc(NC(=O)[C@H]2[C@H]3CCCCC[C@H]3[C@H]2NC(=O)OCc2ccccc2)c1	8.41 µM and 7.22 µM	12.1 µM
NCc1cccc(CCc2cc(Cl)cc(NC(=O)OCc3ccccc3)c2)c1	34.8 µM	> 100 µM
NCCOc1ccnc(NS(=O)(=O)c2ccc(Oc3ccccc3Cl)cc2)c1	> 99.5 µM	> 100 µM

SMILES	IC50 (Genome polyprotein [1])	IC50 (Genome polyprotein [2])
C[C@@H](NCc1c[nH]c2ccccc12)c1cscn1	> 99.5 µM	> 100 µM
NCc1cccc(NC(=O)C[C@H](CC(N)=O)c2ccc(F)cc2)c1	> 99.5 µM	> 100 µM
N[C@H]1CCc2ccc(NC(=O)c3cc(Cl)cc(NC(=O)OCc4ccccc4)c3)cc21	91.2 µM	> 100 µM
CS(=O)(=O)Nc1c(Cl)cc(Cl)cc1C(=O)Nc1cccc(CN)c1	> 99.5 µM	> 100 µM
NCc1cccc(NC(=O)c2cc(Br)cnc2OCC2CC2)c1	> 99.5 µM	> 100 µM
NCc1cc(NS(=O)(=O)c2ccc(Oc3ccccc3Cl)cc2)ccc1Cl	> 99.5 µM	> 100 µM
COc1ccc(COc2ccc([C@H](NC(=O)OCc3ccccc3)C(=O)Nc3cccc(CN)c3)cc2)cn1	> 99.5 µM	> 100 µM
NC1(c2ccccc2NS(=O)(=O)c2ccc(Oc3ccccc3Cl)cc2)CC1	> 99.5 µM	> 100 µM
CN1CC=C(c2cccc([C@@H](NC(=O)OCc3ccccc3)C(=O)Nc3cccc(CN)c3)c2)CC1	> 99.5 µM	> 100 µM
NCc1cccc(NC(=O)c2cc(Cl)cc(CN3CCOCC3)c2)c1	> 99.5 µM	> 100 µM
NCc1cccc(NC(=O)[C@H](NC(=O)OCc2ccccc2)c2ccc(OCC3CCC3)cc2)c1	48.8 µM	> 100 µM
OC[C@H](Cc1cccnc1)NCc1c[nH]c2ccccc12	> 99.5 µM	> 100 µM
CC(C)c1nc2c(C(=O)Nc3cccc(CN)c3)cccc2[nH]1	> 99.5 µM	> 100 µM
COc1cc(C(=O)Nc2cccc(CN)c2)cc(NC(=O)OCc2ccccc2)c1Cl	> 99.5 µM	> 100 µM
NC1(c2cccc(NS(=O)(=O)c3ccc(Oc4ccccc4Cl)cc3)c2)CCC1	> 99.5 µM	> 100 µM
NCc1cccnc1NS(=O)(=O)c1ccc(Oc2ccccc2Cl)cc1	> 99.5 µM	> 100 µM
N[C@H]1CCOc2ccc(NC(=O)c3cc(Cl)cc(NC(=O)OCc4ccccc4)c3)cc21	> 99.5 µM	> 100 µM
O=C(O)C[C@H](NC(=O)OCc1ccccc1)c1ccc(OCc2ccccc2)c(Br)c1	59.8 µM	45.6 µM
